Values of other authors as cited in patent US20250143325A1, “PLANT-BASED INSECT REPELLENT AND USES THEREOF” (PIC Corporation, priority 2023, published 2025).

Columns and labels:
[1] = system: storage food mite, Tyrophagus putrescentiae; conditions: impregnated fabric disc bioassay against Tyrophagus putrescentiae
[2] = system: Periplaneta americana (the American Cockroach) and Blaberus discoidalis (discoids)

SMILES: O=C(OCc1ccccc1)c1ccccc1 [benzyl benzoate]
- 50% lethal dose value [1]: 1.27 g/mL

SMILES: CC(C)=CCC/C(C)=C/CO [geraniol]
- 50% lethal dose value [1]: 1.95 g/mL
- concentration abolishing spontaneous foregut contractions (together with response to electrical stimulation) ([2]; foregut): 2 mM
- threshold for increased spontaneous firing (abdominal nerve cord) ([2]; lower doses, impulses recorded extracellularly): 250 µM
